Assay results from the NIST ThermoML archive (doi:10.1021/je101180r).
Numbers after ± are expanded uncertainties.

Details: Liquid, Ebulliometric method (Recirculating still)

vapor or sublimation pressure (402.57 K) [kPa] | vapor or sublimation pressure (413.74 K) [kPa] | SMILES | vapor or sublimation pressure (373.7 K) [kPa] | vapor or sublimation pressure (384.96 K) [kPa]
5.158 ± 0.11 | 8.041 ± 0.18 | Cc1cccnc1N [2-amino-3-methylpyridine] |  | 
 |  | CN(C)c1ccccc1 [N,N-dimethylaniline] | 5.158 ± 0.11 | 8.041 ± 0.18
